# Experiments:
# [1] = molecular target: Bcl-2 (Homo sapiens, UniProt P10415); assay: Bcl-2 binding affinity analysis (fluorescence polarization binding assay); conditions: read-out: BcI2 (Ki, Bcl-2 binding affinity)
# Text: (§1) Bcl-2 and Bcl-xL binding may be determined using a variety of known methods. One such assay is a sensitive and quantitative in vitro binding assay using fluorescence polarization (FP) described by Wang, J.-L.; Zhang, Z-J.; Choksi, S.; Sjam. S.; Lu, Z.; Croce, C. M.; Alnemri, E. S.; Komgold, R.; Huang, Z. Cell permeable Bcl-2 binding peptides: a chemical approach to apoptosis induction in tumor cells. Cancer Res. 2000, 60, 1498-1502).
# (§2) Bcl-2 and Bcl-xL binding affinity analysis data is presented below for various compounds of the invention.
# [2] = molecular target: Bcl-xL (Homo sapiens, UniProt Q07817); assay: Bcl-xL binding affinity analysis (fluorescence polarization binding assay); conditions: read-out: BcI-XI (Ki, Bcl-xL binding affinity)
# Text: as §1, §2
# Chain of Bcl-2 (P10415 whole entry): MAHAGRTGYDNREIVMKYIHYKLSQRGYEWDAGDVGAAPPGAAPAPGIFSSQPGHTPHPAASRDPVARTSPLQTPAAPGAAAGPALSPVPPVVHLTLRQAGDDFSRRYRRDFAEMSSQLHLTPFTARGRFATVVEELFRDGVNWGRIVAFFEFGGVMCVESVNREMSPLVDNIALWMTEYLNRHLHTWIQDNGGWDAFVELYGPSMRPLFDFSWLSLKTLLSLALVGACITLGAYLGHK
# Chain of Bcl-xL (Q07817 whole entry): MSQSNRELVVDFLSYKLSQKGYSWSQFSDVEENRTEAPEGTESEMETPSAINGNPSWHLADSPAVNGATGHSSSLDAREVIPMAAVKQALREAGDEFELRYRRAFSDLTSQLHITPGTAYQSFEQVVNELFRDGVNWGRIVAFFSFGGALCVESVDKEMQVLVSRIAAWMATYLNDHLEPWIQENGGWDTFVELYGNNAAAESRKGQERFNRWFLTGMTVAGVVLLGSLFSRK
Ki [1] [nM],Ki [2] [nM],Structure (SMILES)
< 1,< 1000,CCOc1c(CN2O[C@@H](CO)[C@@H]([C@H](C)O)[C@H]2C(=O)N[C@H]2C[C@H]3C[C@@H]([C@@H]2C)C3(C)C)cccc1-c1cc(C(=O)N[C@@H](Cc2ccccc2)CN2CCCC2)cc(N(C)C)c1 [Compound 182]
< 1,< 1000,COc1c(CN2O[C@@H](CO)[C@@H]([C@H](C)O)[C@H]2C(=O)N[C@H]2C[C@H]3C[C@@H]([C@@H]2C)C3(C)C)cccc1-c1cc(C(=O)N[C@@H](Cc2ccccc2)CN(C)C)cc(N(C)CC(N)=O)c1 [Compound 310]
< 1,< 1000,COc1c(CN2O[C@@H](CO)[C@@H]([C@H](C)O)[C@H]2C(=O)N[C@H]2C[C@H]3C[C@@H]([C@@H]2C)C3(C)C)cccc1-c1cc(C(=O)N[C@@H](Cc2ccccc2)CN(C)C)cc(N(C)C)c1 [Compound 37]
< 1,< 1000,COc1c(CN2O[C@@H](CO)[C@@H]([C@H](C)O)[C@H]2C(=O)N[C@H]2C[C@H]3C[C@@H]([C@@H]2C)C3(C)C)cccc1-c1cc(C(=O)N2[C@H](CN(C)C)CC[C@@H]2c2ccccc2)cc(N(C)C)c1 [Compound 247]
< 1,< 1000,COc1c(CN2O[C@@H](CO)[C@@H]([C@H](C)O)[C@H]2C(=O)N[C@H]2C[C@H]3C[C@@H]([C@@H]2C)C3(C)C)cccc1-c1cc(C(=O)N[C@@H](Cc2ccccc2)CN(C)C)cc(N(C)CC(=O)O)c1 [Compound 306]
1 to 5,1000 to 5000,COc1c(CN2O[C@@H](CO)[C@@H]([C@H](C)O)[C@H]2C(=O)N[C@H]2C[C@H]3C[C@@H]([C@@H]2C)C3(C)C)cccc1-c1cc(C(=O)N2CCN(C)C[C@@H]2Cc2ccccc2)cc(N(C)C)c1 [Compound 193]

# The next lines start with the molecule.
Structure (SMILES),Ki [1] [nM],Ki [2] [nM]
COc1c(CN2O[C@@H](CO)[C@@H]([C@H](C)O)[C@H]2C(=O)N[C@H]2C[C@H]3C[C@@H]([C@@H]2C)C3(C)C)cccc1-c1cc(C(=O)N[C@@H](Cc2cccc(N)c2)CN(C)C)cc(N(C)C)c1 [Compound 206],< 1,< 1000
COc1c(CN2O[C@@H](CN)[C@@H]([C@H](C)O)[C@H]2C(=O)N[C@H]2C[C@H]3C[C@@H]([C@@H]2C)C3(C)C)cccc1-c1cc(C(=O)N[C@@H](CC(C)C)CN(C)C)cc(N(C)C)c1 [Compound 72],< 1,< 1000
CCN1CCC[C@@H]1CNC(=O)c1cc(-c2cccc(CN3O[C@@H](CO)[C@@H]([C@H](C)O)[C@H]3C(=O)N[C@H]3C[C@H]4C[C@@H]([C@@H]3C)C4(C)C)c2OC)cc(N(C)C)c1 [Compound 312],< 1,< 1000
COc1c(CN2O[C@@H](CO)[C@@H]([C@H](C)O)[C@H]2C(=O)N[C@H]2C[C@H]3C[C@@H]([C@@H]2C)C3(C)C)cccc1-c1cc(C(=O)N[C@@H](CN(C)C)CS(=O)(=O)C(C)(C)C)cc(N(C)C)c1 [Compound 170],1 to 5,1000 to 5000
CNC(=O)c1cc(-c2cccc(CN3O[C@@H](CN)[C@@H]([C@H](C)O)[C@H]3C(=O)N[C@H]3C[C@H]4C[C@@H]([C@@H]3C)C4(C)C)c2OC)cc(N(C)C)c1 [Compound 70],1 to 5,> 10000
COc1c(CN2O[C@@H](CN)[C@@H]([C@H](C)O)[C@H]2C(=O)N[C@H]2C[C@H]3C[C@@H]([C@@H]2C)C3(C)C)cccc1-c1cc(C(=O)O)cc(N(C)C)c1 [Compound 71],> 9,1000 to 5000
COc1c(CN2O[C@@H](CN)[C@@H]([C@H](C)O)[C@H]2C(=O)N[C@H]2C[C@H]3C[C@@H]([C@@H]2C)C3(C)C)cccc1-c1cc(C(=O)N[C@@H]2CCN(C)C2)cc(N(C)C)c1 [Compound 213],< 1,> 10000
CCNC[C@@H]1ON(Cc2cccc(-c3cc(C(=O)NC)cc(N(C)C)c3)c2OC)[C@H](C(=O)N[C@H]2C[C@H]3C[C@@H]([C@@H]2C)C3(C)C)[C@@H]1[C@H](C)O [Compound 94],1 to 5,> 10000

# From patent US8178690B2, “Compounds and methods for inhibiting the interaction of BCL proteins with binding partners” (Infinity Pharmaceuticals, Inc., priority 2006, dated 2012)
